Tests used:
Type in all cases: functional
[1] = Growth inhibition of human RXF631L cells after 48 hrs by sulforhodamine B colorimetric assay; details: RXF 631, 48 h
KM12 = experiment: Growth inhibition of human KM12 cells after 48 hrs by sulforhodamine B colorimetric assay; details: KM12, 48 h
MCF7 = experiment: Growth inhibition of human MCF7 cells after 48 hrs by sulforhodamine B colorimetric assay; details: MCF7, 48 h
ACHN = experiment: Growth inhibition of human ACHN cells after 48 hrs by sulforhodamine B colorimetric assay
[2] = Growth inhibition of human OVCAR4 cells after 48 hrs by sulforhodamine B colorimetric assay; details: OVCAR-4, 48 h
NCI-H522 = experiment: Growth inhibition of human NCI-H522 cells after 48 hrs by sulforhodamine B colorimetric assay; details: NCI-H522, 48 h
[3] = Growth inhibition of human HCT116 cells after 48 hrs by sulforhodamine B colorimetric assay; details: HCT-116, 48 h
MDA-MB-231 = experiment: Growth inhibition of human MDA-MB-231 cells after 48 hrs by sulforhodamine B colorimetric assay; details: MDA-MB-231, 48 h
NCI-H226 = experiment: Growth inhibition of human NCI-H226 cells after 48 hrs by sulforhodamine B colorimetric assay; details: NCI-H226, 48 h
[4] = Growth inhibition of human MKN28 cells after 48 hrs by sulforhodamine B colorimetric assay; details: MKN-28, 48 h
St-4 = experiment: Growth inhibition of human St-4 cells after 48 hrs by sulforhodamine B colorimetric assay; details: St-4, 48 h
[5] = Growth inhibition of human DMS273 cells after 48 hrs by sulforhodamine B colorimetric assay; details: DMS-273, 48 h
[6] = Growth inhibition of human PC3 cells after 48 hrs by sulforhodamine B colorimetric assay; details: PC-3, 48 h
[7] = Growth inhibition of human DMS114 cells after 48 hrs by sulforhodamine B colorimetric assay; details: DMS-114, 48 h
SK-OV-3 = experiment: Growth inhibition of human SKOV3 cells after 48 hrs by sulforhodamine B colorimetric assay; details: SK-OV-3, 48 h
U-251 = experiment: Growth inhibition of human U251 cells after 48 hrs by sulforhodamine B colorimetric assay; details: U-251, 48 h
[8] = Growth inhibition of human SF539 cells after 48 hrs by sulforhodamine B colorimetric assay; details: SF-539, 48 h
NCI-H23 = experiment: Growth inhibition of human NCI-H23 cells after 48 hrs by sulforhodamine B colorimetric assay; details: NCI-H23, 48 h
[9] = Growth inhibition of human SNB78 cells after 48 hrs by sulforhodamine B colorimetric assay; details: SNB-78, 48 h
[10] = Growth inhibition of human OVCAR8 cells after 48 hrs by sulforhodamine B colorimetric assay; details: OVCAR-8, 48 h
HT-29 = experiment: Growth inhibition of human HT-29 cells after 48 hrs by sulforhodamine B colorimetric assay; details: HT-29, 48 h
[11] = Growth inhibition of human BSY1 cells after 48 hrs by sulforhodamine B colorimetric assay; details: BSY-1, 48 h
[12] = Growth inhibition of human MKN74 cells after 48 hrs by sulforhodamine B colorimetric assay; details: MKN-74, 48 h
A549 = experiment: Growth inhibition of human A549 cells after 48 hrs by sulforhodamine B colorimetric assay; details: A549, 48 h
[13] = Growth inhibition of human OVCAR5 cells after 48 hrs by sulforhodamine B colorimetric assay; details: OVCAR-5, 48 h
[14] = Growth inhibition of human HBC5 cells after 48 hrs by sulforhodamine B colorimetric assay; details: HBC5, 48 h
[15] = Growth inhibition of human HBC4 cells after 48 hrs by sulforhodamine B colorimetric assay; details: HBC4, 48 h
[16] = Growth inhibition of human MKN7 cells after 48 hrs by sulforhodamine B colorimetric assay; details: MKN-7, 48 h
[17] = Growth inhibition of human HCT15 cells after 48 hrs by sulforhodamine B colorimetric assay; details: HCT-15, 48 h
[18] = Growth inhibition of human LOXIMVI cells after 48 hrs by sulforhodamine B colorimetric assay; details: LOX IMVI
NCI-H460 = experiment: Growth inhibition of human NCI-H460 cells after 48 hrs by sulforhodamine B colorimetric assay; details: NCI-H460, 48 h
[19] = Growth inhibition of human MKN45 cells after 48 hrs by sulforhodamine B colorimetric assay; details: MKN-45, 48 h
SNB-75 = experiment: Growth inhibition of human SNB75 cells after 48 hrs by sulforhodamine B colorimetric assay; details: SNB-75, 48 h
DU-145 = experiment: Growth inhibition of human DU145 cells after 48 hrs by sulforhodamine B colorimetric assay; details: DU-145, 48 h
[20] = Growth inhibition of human MKN1 cells after 48 hrs by sulforhodamine B colorimetric assay; details: MKN-1, 48 h
[21] = Growth inhibition of human HCC2998 cells after 48 hrs by sulforhodamine B colorimetric assay; details: HCC 2998, 48 h
[22] = Growth inhibition of human SF295 cells after 48 hrs by sulforhodamine B colorimetric assay; details: SF-295, 48 h
[23] = Growth inhibition of human OVCAR3 cells after 48 hrs by sulforhodamine B colorimetric assay; details: OVCAR-3, 48 h
SF-268 = experiment: Growth inhibition of human SF268 cells after 48 hrs by sulforhodamine B colorimetric assay; details: SF-268, 48 h

Structure (SMILES) | GI50 [1] [µM] | GI50 (KM12) [µM] | GI50 (ACHN) [µM] | GI50 [2] [µM] | GI50 [3] [µM] | GI50 (MDA-MB-231) [µM] | GI50 (NCI-H226) [µM] | GI50 (St-4) [µM] | GI50 [5] [µM] | GI50 [6] [µM] | GI50 (SK-OV-3) [µM] | GI50 (U-251) [µM] | GI50 [8] [µM] | GI50 [9] [µM] | GI50 [10] [µM] | GI50 (HT-29) [µM] | GI50 [11] [µM] | GI50 [12] [µM] | GI50 (A549) [µM] | GI50 [13] [µM] | further results
CCCCCCCCCCCC[C@@H](O)[C@H]1CC[C@H]([C@H](O)CCCCCCCCCCNC(=O)c2cccs2)O1 | 3.24 | 3.09 | 2.57 | 1.82 | 1.29 | 2.57 | 2.09 | 1.82 | 1.82 | 2.29 | 28.8 | 2 | 17 | 2.29 | 3.02 | 2.19 | 18.2 | 1.51 | 3.72 | 2.51 | GI50 (MCF7): 2.19 µM; GI50 (NCI-H522): 1.1 µM; GI50 [4]: 0.363 µM; GI50 [7]: 0.282 µM; GI50 (NCI-H23): 0.676 µM; GI50 [14]: 3.24 µM; GI50 [15]: 3.39 µM; GI50 [16]: 0.269 µM; GI50 [17]: 5.75 µM; GI50 [18]: 1.29 µM; GI50 (NCI-H460): 2.29 µM; GI50 [19]: 3.31 µM; GI50 (SNB-75): 3.39 µM; GI50 (DU-145): 2.69 µM; GI50 [20]: 1.82 µM; GI50 [21]: 2 µM; GI50 [22]: 1.41 µM; GI50 [23]: 0.0427 µM; GI50 (SF-268): 3.98 µM
CCCCCCCCCCCC[C@@H](O)[C@H]1CC[C@H]([C@H](O)CCCCCCCCCCNC(=O)c2ccco2)O1 | > 100 | > 100 | > 100 | 15.8 | 7.76 | > 100 | 97.7 | > 100 | 39.8 | > 100 | > 100 | > 100 | 81.3 | > 100 | > 100 | > 100 | 0.49 | 1.7 | > 100 | > 100 | GI50 (MCF7): > 100 µM; GI50 (NCI-H522): 18.2 µM; GI50 [4]: 0.617 µM; GI50 [7]: 0.282 µM; GI50 (NCI-H23): 12.9 µM; GI50 [14]: > 100 µM; GI50 [15]: > 100 µM; GI50 [16]: 0.832 µM; GI50 [17]: > 100 µM; GI50 [18]: 17 µM; GI50 (NCI-H460): 18.2 µM; GI50 [19]: > 100 µM; GI50 (SNB-75): > 100 µM; GI50 (DU-145): > 100 µM; GI50 [20]: > 100 µM; GI50 [21]: > 100 µM; GI50 [22]: 33.9 µM; GI50 [23]: > 100 µM; GI50 (SF-268): > 100 µM
CCCCCCCCCCCC[C@@H](O)[C@H]1CC[C@H]([C@H](O)CCCCCCCCCCNC(=O)c2cncs2)O1 | > 100 | > 100 | > 100 | > 100 | 12.9 | > 100 | > 100 | > 100 | 19.1 | > 100 | > 100 | > 100 | 50.1 | > 100 | > 100 | > 100 | 3.98 | 61.7 | 34.7 | > 100 | GI50 (MCF7): > 100 µM; GI50 (NCI-H522): 19.1 µM; GI50 [4]: 0.832 µM; GI50 [7]: 0.219 µM; GI50 (NCI-H23): 4.79 µM; GI50 [14]: > 100 µM; GI50 [15]: > 100 µM; GI50 [16]: 0.617 µM; GI50 [17]: > 100 µM; GI50 [18]: > 100 µM; GI50 (NCI-H460): 34.7 µM; GI50 [19]: > 100 µM; GI50 (SNB-75): > 100 µM; GI50 (DU-145): > 100 µM; GI50 [20]: > 100 µM; GI50 [21]: > 100 µM; GI50 [22]: 43.7 µM; GI50 [23]: > 100 µM; GI50 (SF-268): > 100 µM
CCCCCCCCCCCC[C@@H](O)[C@H]1CC[C@H]([C@H](O)CCCCCCCCCCCCC2=C[C@H](C)OC2=O)O1 [REL-SOLAMIN] | > 100 | > 100 | > 100 | > 100 | > 100 | > 100 | > 100 | > 100 | > 100 | > 100 | > 100 | > 100 | > 100 | > 100 | > 100 | > 100 | > 100 | > 100 | > 100 | > 100 | GI50 [14]: > 100 µM; GI50 [15]: > 100 µM; GI50 [17]: > 100 µM; GI50 (NCI-H460): > 100 µM; GI50 [19]: > 100 µM; GI50 (SNB-75): > 100 µM; GI50 (DU-145): > 100 µM; GI50 [20]: > 100 µM; GI50 [21]: > 100 µM; GI50 [22]: 39.8 µM; GI50 [23]: > 100 µM; GI50 (SF-268): > 100 µM
